PubChem BioAssay (NCI)
“And” between values parts separate entries of the source, which are not always exact repeats. Equal values may be shown once.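 Five concentrations, 48 hours, 96-well plates. GI50 = concentration required for 50% inhibition of growth. TGI: concentration producing complete growth inhibition.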

Key:
Assay in all cases: NCI anticancer screen, dose series, 48 h
A549 NSCLC = tested on: A549 NSCLC
HCT-15 colon = tested on: HCT-15 colon
NCI/ADR-RES ovarian = tested on: NCI/ADR-RES ovarian
PC-3 prostate = tested on: PC-3 prostate
SF-268 CNS = tested on: SF-268 CNS
SF-295 CNS = tested on: SF-295 CNS
HL-60(TB) leukemia = tested on: HL-60(TB) leukemia
MDA-MB-231 breast = tested on: MDA-MB-231 breast

| SMILES | TGI (A549 NSCLC) [µM] | TGI (HCT-15 colon) [µM] | TGI (NCI/ADR-RES ovarian) [µM] | TGI (PC-3 prostate) [µM] | TGI (SF-268 CNS) [µM] | TGI (SF-295 CNS) [µM] | TGI (HL-60(TB) leukemia) [µM] | TGI (MDA-MB-231 breast) [µM] | GI50 (A549 NSCLC) | GI50 (HCT-15 colon) | GI50 (MDA-MB-231 breast) | GI50 (NCI/ADR-RES ovarian) | GI50 (PC-3 prostate) | GI50 (SF-268 CNS) | GI50 (SF-295 CNS) | GI50 (HL-60(TB) leukemia) |
| --- | --- | --- | --- | --- | --- | --- | --- | --- | --- | --- | --- | --- | --- | --- | --- | --- |
| COc1cc(O)c(C(C)=O)c(O)c1 | > 100 | > 100 | > 100 | > 100 | > 100 | > 100 |  |  |  |  |  |  |  |  |  |  |
| CCCCCCCCCCCCCCCCS(=O)(=O)c1ccc(NN)cc1 | > 10 | > 10 | > 10 | > 10 | > 10 | > 10 | 6.17 | > 10 |  |  |  |  |  |  |  |  |
| Cc1cc(=O)oc2cc(OCCn3c(C)nn(-c4ccc(Cl)cc4)c3=O)ccc12 | > 100 | > 100 | > 100 | > 100 | > 100 | > 100 |  | > 100 | 6.07 µM | 3.2 µM | 4.53 µM | 1.64 µM | 8.13 µM | 13.6 µM | 4.73 µM |  |
| CC(=O)Oc1ccc(C2(c3ccc(OC(C)=O)cc3)C(=O)Nc3ccccc32)cc1 | > 100 | > 100 | > 100 | > 100 | > 100 | > 100 | > 71.9 | > 100 | 33.8 µM and 42.9 µM | 20.5 µM and 25.8 µM | 25.6 µM and 37.8 µM | 1.16 µM and 1.8 µM | 5.19 µM and 14.3 µM | 38.5 µM and 32.8 µM | 23.5 µM and 38.3 µM | 15.1 µM and 30.9 µM |
| Fc1cc(-c2nnc3n2N=C(c2ccc(Cl)cc2Cl)CS3)c(Cl)cc1Cl | > 100 | > 100 | 99.5 | > 100 | > 100 | > 100 | > 100 | > 100 | 58 µM | 38.3 µM | 33.7 µM | 30.8 µM | 39.2 µM | 36.6 µM | 36.4 µM | > 100 µM |
| COc1ccc(C2ONC3=NCCN32)cc1 (stereo not given) | > 100 | > 100 | > 100 | > 100 | > 100 | > 100 |  | > 100 | 86.9 µM | 29.2 µM | > 100 µM | 40.4 µM | 55.4 µM | 70.5 µM | 93.4 µM |  |
| O=C(O)C1C2C=CC(O2)C1C(=O)Nc1ncccn1 (stereo not given) | > 100 | > 100 | > 100 | > 100 | > 100 | > 100 | > 100 | > 100 |  |  |  |  |  |  |  |  |
| CCCn1cnc2c(SCc3ccccc3)nc(N)nc21 | > 100 | > 100 | > 100 | > 100 | > 100 | > 100 | > 100 | > 100 | 77.8 µM | 37.8 µM | > 100 µM | 63.2 µM | 67.9 µM | > 100 µM | 32.1 µM | 65.3 µM |
| O=C(Nc1cc(S(=O)(=O)c2ccc(Cl)cc2)ccc1Cl)c1cc(I)cc(I)c1O | 38.2 | 32.7 | 44.6 | 28.6 | 40.4 | 32 | 31.6 | 36.5 | 19.3 µM | 16.5 µM | 17.4 µM | 18.7 µM | 14.4 µM | 18.5 µM | 15.1 µM | 14.5 µM |
| C/C(=N\n1c(N)c(C#N)c(-c2ccc(Cl)cc2)c(C#N)c1=O)c1ccncc1 | 65.4 | > 100 | 31.3 | 16.8 | 61.4 | 86 |  | 44.2 | 7.58 µM | 58.2 µM | 12.6 µM | 5.28 µM | 2.41 µM | 9.83 µM | 4.65 µM |  |
| O=c1oc2ccc(F)cc2c(=O)n1-c1ccc(Br)cc1F | > 100 | 10.9 | 8.9 | 7.42 | 13.7 | 3.63 |  | 7.28 | 2.29 µM | 1.29 µM | 0.434 µM | 0.85 µM | 1.52 µM | 0.633 µM | 1.82 µM |  |
| CCN(CC)CCOc1ccc(/C=C2\CC3C4CC=C5C[C@@H](OC(C)=O)CC[C@]5(C)C4CC[C@]3(C)C2=O)cc1OC (stereo not given in full) | 44.9 | 10 | > 100 | 26.9 | 18.4 | 3.94 |  | > 100 | 17.7 µM | 2.96 µM | 21.1 µM | 5.08 µM | 4.16 µM | 4.14 µM | 2.02 µM |  |
| C=CC(=O)Nc1cccc(Nc2nc(Nc3ccc(OCCOC(F)F)cc3)ncc2F)c1 | 20.2 | > 100 | 19.7 | 27.1 | 17.6 | 83.4 | 10.4 | 51.1 | 3.56 µM | 1.97 µM | 5.02 µM | 2.48 µM | 4.01 µM | 2.25 µM | 6.04 µM | 2.02 µM |
| c1cnc2[nH]cc(-c3csc(-c4cn(CCCN5CCCCC5)c5ccccc45)n3)c2c1 | 3.63 | 3.18 |  | 3.05 | 3.19 | 3.18 | 3.74 | 3.11 | 1.97 µM | 1.72 µM | 1.63 µM |  | 1.59 µM | 1.56 µM | 1.65 µM | 1.88 µM |
| O=C(/C=C/c1cn(-c2ccccc2)nc1-c1ccc([N+](=O)[O-])cc1)c1ccc(Cl)cc1 |  |  | > 100 |  | > 100 | 12.3 | > 100 | > 100 |  |  | 2.9 µM | 3.86 µM |  | 2.78 µM | 2.68 µM |  |
| Cn1cnc([N+](=O)[O-])c1Sc1nc(N)nc2nc[nH]c12 | > 100 | > 100 | > 100 | > 100 | > 100 | > 100 | > 100 | > 100 | 13.1 µM | 5.11 µM | 4.88 µM | 2.17 µM | 7.91 µM | 2.39 µM | 0.635 µM | 5.69 µM |
| COc1ccc2cc(-c3c(-c4ccncc4)nc(-c4ccc(S(C)=O)cc4C)n3C)ccc2c1 (stereo not given) | > 25 | > 25 | > 25 | > 25 | > 25 | > 25 | > 25 | > 25 | 15.5 µM | 16.7 µM | > 25 µM | 24.3 µM | 15.9 µM | > 25 µM | 16.6 µM | 9.61 µM |
| COc1ccc(/C=C(/C(=O)n2cnnn2)c2cc(OC)c(OC)c(OC)c2)cc1 | > 100 | > 100 | > 100 | > 100 | > 100 | > 100 | > 100 | > 100 | 3.97 µM | 2.03 µM | 4.7 µM | 3.87 µM | 4.03 µM | 4.04 µM | 3.24 µM | 2.77 µM |
| O=C(O)C1C(C(=O)O)C2(Cl)C(Cl)=C(Cl)C1(Cl)C2(Cl)Cl.[Cd] (stereo not given) | 39 | 46.6 | 80.3 | 29.7 | 36.8 | > 100 | 72.1 | 42.4 | 18.7 µM | 21.4 µM | 20.9 µM | 28.6 µM | 15.3 µM | 18.1 µM | > 100 µM | 28.4 µM |
| COc1ccc(-c2nc3c(c(=O)n2C(C)=O)C(c2ccc(Cl)cc2)c2sc4c(Cl)cccc4c2O3)cc1 (stereo not given) | 2.2 | 1.66 | 0.919 | 2.39 | 3.82 | 1.27 | 0.982 | 2.43 | 0.625 µM | 0.301 µM | 0.589 µM | 0.187 µM | 0.337 µM | 0.68 µM | 0.256 µM | 0.3 µM |
| CC12OC(C(=O)C13CCC3)C1C(=O)c3ccccc3C(=O)C12 (stereo not given) | > 100 | > 100 | > 100 | > 100 | > 100 |  | > 100 | > 100 | > 100 µM | > 100 µM | 10.4 µM | > 100 µM | 70.7 µM | > 100 µM |  | 52 µM |
| CCC(=O)c1cc([N+](=O)[O-])c(Br)s1 | 19.6 | 8.21 | 24.1 | 24.4 | 14.6 | 31.6 |  | 21.3 | 5.27 µM | 2.47 µM | 6.79 µM | 6.15 µM | 10.3 µM | 4.39 µM | 15.5 µM |  |
| Nc1ccn([C@@H]2C(F)=C(CO)[C@@H](O)[C@H]2O)c(=O)n1 | > 100 | > 100 | > 100 |  | > 100 | > 100 | > 100 | > 100 | 0.42 µM | 0.545 µM | 2.73 µM | 0.578 µM |  | 1.53 µM | 4.2 µM | 0.889 µM |
| O=c1[nH]c2cc(Cl)c(Cl)cc2n2cc3ccccc3c12 | 34.5 | 30.2 | 31.6 | 31.1 | 42.6 | 29.9 |  | 32.7 | 18.9 µM | 16.6 µM | 17.2 µM | 17.7 µM | 17.3 µM | 23.7 µM | 16.2 µM |  |
| COc1ccc2c(c1)nc1n2C(c2ccc(F)cc2)SC1 (stereo not given) | > 100 | 42.8 | 45.8 | > 100 | > 100 | > 100 | > 100 |  | 25.4 µM | 19.7 µM |  | 20.7 µM | 27.1 µM | 33.8 µM | 27.9 µM | 28.4 µM |
